# Assay results: patent US11834424B2, “Compounds useful as chaperone-mediated autophagy modulators” (ALBERT EINSTEIN COLLEGE OF MEDICINE, priority 2018, dated 2023)
# Where two headings read alike, the source gives them in different places.
# Test: Pharmacokinetics (plasma and brain levels) in ICR (CD-1) mice
# Type: in vivo
# Conditions: male, mouse; for AUC(0-inf): read-out: AUCINF_obs; for MRT inf: read-out: MRTINF_obs
# Protocol: ICR (CD-1) male mice were fasted at least three horns and water was available ad libitum before the study. Animals were housed in a controlled environment, target conditions: temperature 18 to 29° C., relative humidity 30 to 70%. Temperature and relative humidity was monitored daily. An electronic time controlled lighting system was used to provide a 12 h light/12 h dark cycle. 3 mice for each indicated time point. ICR (CD-1) mice were administered CA77 at 1 mg/kg i.v. and 30 mg/kg p.o. or CA77.1 at 1 mg/kg i.v. (FIG. 2A) and 10 mg/kg p.o. (FIG. 2B). Three (3) mice were included in each dosage and time group. Mice were sacrificed and plasma and brains were obtained at 0.083, 0.25, 0.50, 1.0, 2.0, 4.0, 8.0, and 24.0 hours after administration and drug concentration determined using LC-MS/MS. Brains were removed, homogenized with a tissue homogenizer in cold 5% w/v BSA in phosphate buffer saline (PBS). A 100 microliter aliquots of brain samples were dispensed in to glass culture tubes and mixed with ethyl acetate (800 μl), vortexed, and centrifuged. The organic layer was transferred to a fresh culture tube, dried under nitrogen, and reconstituted in mobile phase for quantitation. Pharmacokinetic parameters were determined by standard methods using Phoenix WinNonlin 6.3 software.
# Tables 3A and 3B provide the concentrations of CA77 in ICR (CD-1) mouse plasma (3A) and mouse brain (3B) following i.v. administration of 1 mg/kg CA77. Table 3C provides the brain/plasma ratio of CA77 following i.v. administration of 1 mg/kg CA77. Shaded cells indicate data not included in statistics due to aberrant value. BLQ=Below Limit of Quantitation.
# Tables 5A and 5B provide the concentrations of CA77.1 in ICR (CD-1) mouse plasma (5A) and mouse brain (5B) following i.v. administration of 1 mg/kg CA77.1. Table 5C provides the brain/plasma ratio of CA77.1 following i.v. administration of 1 mg/kg CA77.1. The plasma and brain pharmacokinetic parameters for CA77.1 are provided in Table 6. *—cells contain data not present in the statistics.
# [1] = ICR (CD-1), brain/plasma, iv, 1 mg/kg, i.v. 1 mg/kg, read-out: Brain/Plasma ratio, Mean
# [2] = ICR (CD-1), brain/plasma, iv, 1 mg/kg, i.v. 1 mg/kg, read-out: Brain/Plasma ratio, individual animal
# [3] = ICR (CD-1), plasma, iv, 1 mg/kg, i.v. 1 mg/kg, mouse plasma, read-out: Conc. in plasma, Mean
# [4] = ICR (CD-1), plasma, iv, 1 mg/kg, i.v. 1 mg/kg, mouse plasma, read-out: Conc. in plasma, individual animal
# [5] = plasma, iv, i.v. 1 mg/kg, ICR (CD-1) mice
# [6] = plasma, po, p.o. 10 mg/kg, ICR (CD-1) mice
smiles,measurement,setting,value
"CC(=O)Nc1ccc(-c2cnc3cc(Cl)ccc3n2)cc1 [CA77.1, N-(4-(6-chloroquinoxalin-2-yl)phenyl)acetamide]",concentration at 24 h,"ICR (CD-1), brain, iv, 1 mg/kg, i.v. 1 mg/kg, mouse brain, read-out: Conc. in brain, Mean",0 ng/g
same,concentration at 24 h,"ICR (CD-1), brain, iv, 1 mg/kg, i.v. 1 mg/kg, mouse brain, read-out: Conc. in brain, individual animal",0 ng/g
same,Kp at 0.083 h,[1],5.64
same,Kp at 0.083 h,[2],5.81
same,Kp at 0.25 h,[1],6.19
same,Kp at 0.25 h,[2],6.54
same,Kp at 0.5 h,"ICR (CD-1), brain/plasma, iv, 1 mg/kg, i.v. 1 mg/kg, 0.50 h, read-out: Brain/Plasma ratio, Mean",3.92
same,Kp at 1 h,[1],7.52
same,Kp at 1 h,[2],5.44
same,Kp at 2 h,"ICR (CD-1), brain/plasma, iv, 1 mg/kg, i.v. 1 mg/kg, 2.00 h, read-out: Brain/Plasma ratio, Mean",6.22
same,Kp at 4 h,"ICR (CD-1), brain/plasma, iv, 1 mg/kg, i.v. 1 mg/kg, 4.00 h, read-out: Brain/Plasma ratio, Mean",4
same,Kp at 8 h,[1],2.23
same,Kp at 8 h,[2],1.79
same,Kp at 24 h,[1],0
same,Kp at 24 h,[2],0
same,concentration at 0.083 h,[3],190 ng/mL
same,concentration at 0.083 h,[4],177 ng/mL
same,concentration at 0.25 h,[3],129 ng/mL
same,concentration at 0.25 h,[4],132 ng/mL
same,concentration at 0.5 h,"ICR (CD-1), plasma, iv, 1 mg/kg, i.v. 1 mg/kg, mouse plasma, 0.50 h, read-out: Conc. in plasma, Mean",276 ng/mL
same,concentration at 1 h,[3],91 ng/mL
same,concentration at 1 h,[4],110 ng/mL
same,concentration at 2 h,"ICR (CD-1), plasma, iv, 1 mg/kg, i.v. 1 mg/kg, mouse plasma, 2.00 h, read-out: Conc. in plasma, Mean",46 ng/mL
same,concentration at 4 h,"ICR (CD-1), plasma, iv, 1 mg/kg, i.v. 1 mg/kg, mouse plasma, 4.00 h, read-out: Conc. in plasma, Mean",6 ng/mL
same,concentration at 8 h,[3],2 ng/mL
same,concentration at 8 h,[4],2.74 ng/mL
same,concentration at 24 h,[3],1 ng/mL
same,concentration at 24 h,[4],0.556 ng/mL
same,AUC(0-t),[5],314 ng·h/mL
same,half-life,[5],1.39 h
same,AUC(0-inf),[5],315 ng·h/mL
same,MRT inf,[5],2 h
same,bioavailability,"plasma, oral, p.o. 10 mg/kg vs i.v. 1 mg/kg, ICR (CD-1) mice",46.4%
same,AUC(0-t),[6],1460 ng·h/mL
same,half-life,[6],2.78 h
same,AUC(0-inf),[6],1460 ng·h/mL
same,Cmax,"plasma, po, p.o. 10 mg/kg, ICR (CD-1) mice, read-out: Cmax",464 ng/mL
same,MRT inf,[6],3 h
same,Tmax,"plasma, po, p.o. 10 mg/kg, ICR (CD-1) mice, read-out: Tmax",1 h
